Numbering of substitutions follows the chain as printed. Activity calls are given as the source filed them. The calls are words filed in the database; no cut-off is given here.
How the values were obtained:
[1] = molecular target: T1, Kinesin-like protein KIF11 (Homo sapiens, UniProt P52732); assay: Inhibition of human wild type Eg5 using varying ATP levels in presence of saturating levels of microtubule by Lineweaver-Burke plot
T1 sequence (P52732 whole entry): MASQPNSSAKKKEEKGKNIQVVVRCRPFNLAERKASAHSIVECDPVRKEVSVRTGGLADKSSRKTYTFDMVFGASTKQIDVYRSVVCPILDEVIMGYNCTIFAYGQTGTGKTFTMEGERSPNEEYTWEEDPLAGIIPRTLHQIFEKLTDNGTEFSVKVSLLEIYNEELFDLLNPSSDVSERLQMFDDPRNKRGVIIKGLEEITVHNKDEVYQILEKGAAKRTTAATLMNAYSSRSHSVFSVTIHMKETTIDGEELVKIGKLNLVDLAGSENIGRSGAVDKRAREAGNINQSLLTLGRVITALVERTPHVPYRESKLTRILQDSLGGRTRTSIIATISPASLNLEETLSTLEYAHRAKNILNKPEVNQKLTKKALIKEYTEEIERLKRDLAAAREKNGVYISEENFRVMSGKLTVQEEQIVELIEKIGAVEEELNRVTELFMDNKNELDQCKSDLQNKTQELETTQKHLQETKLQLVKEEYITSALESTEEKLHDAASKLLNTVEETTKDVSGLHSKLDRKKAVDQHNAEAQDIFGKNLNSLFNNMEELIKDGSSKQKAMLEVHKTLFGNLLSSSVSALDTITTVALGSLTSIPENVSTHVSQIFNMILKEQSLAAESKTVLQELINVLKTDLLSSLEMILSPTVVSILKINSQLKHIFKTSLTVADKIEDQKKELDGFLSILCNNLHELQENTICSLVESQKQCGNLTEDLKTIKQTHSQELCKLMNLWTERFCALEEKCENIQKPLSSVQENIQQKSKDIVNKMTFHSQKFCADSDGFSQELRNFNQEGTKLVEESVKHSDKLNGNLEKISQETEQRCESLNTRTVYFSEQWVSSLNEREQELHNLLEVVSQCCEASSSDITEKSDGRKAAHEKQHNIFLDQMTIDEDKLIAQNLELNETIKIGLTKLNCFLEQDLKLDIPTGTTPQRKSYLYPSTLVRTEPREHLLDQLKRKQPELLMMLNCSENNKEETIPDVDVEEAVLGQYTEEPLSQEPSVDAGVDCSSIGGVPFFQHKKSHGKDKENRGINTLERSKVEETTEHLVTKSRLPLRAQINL

[2] = molecular target: T2, Kinesin-like protein KIF11 (Homo sapiens) (UniProt P52732); assay: Competitive inhibition of human Eg5 assessed as effect on ATPase activity using varying ATP levels in absence of microtubule by Lineweaver-Burke plot
T2 sequence (whole entry): T1 sequence (P52732 whole entry)

[3] = molecular target: T2, Kinesin-like protein KIF11 (Homo sapiens); assay: Competitive inhibition of human wild type Eg5 with respect to ATP using varying ATP levels in presence of saturating levels of microtubule by Lineweaver-Burke plot
[4] = molecular target: Kinesin-like protein KIF11 (Homo sapiens, UniProt P52732, A133D); assay: Inhibition of human KSP A133D mutant using varying ATP levels in presence of saturating levels of microtubule by Lineweaver-Burke plot
[5] = test system: T3, Kinesin-like protein KIF11 (Homo sapiens), P52732 [A133D]; assay: Competitive inhibition of human KSP A133D mutant with respect to ATP using varying ATP levels in presence of saturating levels of microtubule by Lineweaver-Burke plot
T3 sequence (whole entry): T1 sequence (P52732 whole entry) with A133D

[6] = molecular target: T2, Kinesin-like protein KIF11 (Homo sapiens); assay: Uncompetitive inhibition of human wild type Eg5 with respect to microtubule using varying ATP levels in presence of saturating levels of microtubule by Lineweaver-Burke plot

Kinesin-like protein KIF11 (Homo sapiens, UniProt P52732, A133D), sequence (P52732 whole entry A133D): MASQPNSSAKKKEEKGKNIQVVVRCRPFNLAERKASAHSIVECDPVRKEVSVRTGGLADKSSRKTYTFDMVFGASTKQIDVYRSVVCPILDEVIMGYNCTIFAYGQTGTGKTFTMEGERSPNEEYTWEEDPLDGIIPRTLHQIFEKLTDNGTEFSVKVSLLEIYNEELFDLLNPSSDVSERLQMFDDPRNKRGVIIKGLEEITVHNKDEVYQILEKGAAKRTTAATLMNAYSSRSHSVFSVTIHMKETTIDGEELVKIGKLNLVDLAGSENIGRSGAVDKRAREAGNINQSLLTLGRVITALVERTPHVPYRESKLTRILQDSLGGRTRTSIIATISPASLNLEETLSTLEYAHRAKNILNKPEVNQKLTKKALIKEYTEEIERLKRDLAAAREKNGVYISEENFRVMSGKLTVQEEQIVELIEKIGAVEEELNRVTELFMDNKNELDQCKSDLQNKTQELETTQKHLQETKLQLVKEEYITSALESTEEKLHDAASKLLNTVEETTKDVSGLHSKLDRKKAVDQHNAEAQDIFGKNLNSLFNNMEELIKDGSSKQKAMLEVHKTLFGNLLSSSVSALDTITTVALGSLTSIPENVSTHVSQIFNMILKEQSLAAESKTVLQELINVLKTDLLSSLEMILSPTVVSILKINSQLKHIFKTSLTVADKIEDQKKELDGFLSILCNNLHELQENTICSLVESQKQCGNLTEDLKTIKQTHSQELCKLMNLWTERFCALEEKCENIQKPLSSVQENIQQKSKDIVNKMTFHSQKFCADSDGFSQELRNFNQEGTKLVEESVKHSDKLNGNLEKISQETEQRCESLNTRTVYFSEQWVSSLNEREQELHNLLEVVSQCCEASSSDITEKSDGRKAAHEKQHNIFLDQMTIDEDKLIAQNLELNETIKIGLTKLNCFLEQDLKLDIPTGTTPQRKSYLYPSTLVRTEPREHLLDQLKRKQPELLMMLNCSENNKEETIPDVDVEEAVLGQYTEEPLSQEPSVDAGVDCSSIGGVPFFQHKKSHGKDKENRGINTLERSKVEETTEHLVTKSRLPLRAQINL

Row | Ki [1] | inhibition [2] | inhibition [3] | Ki [4] | inhibition [5] | inhibition [6] | Compound
1 | 1.8 nM | inactive | Active | 1.4 nM | Active | Active | O=C1CCc2cc(-c3ccc(C(F)(F)F)cc3)ccc2N1
2 | 8.8 nM | inactive | Active | 6.8 nM | Active | Active | NC(=O)Nc1ccc(-c2ccc(C(F)(F)F)cc2)cc1F

From ChEMBL document CHEMBL1221208, “ATP-competitive inhibitors of the mitotic kinesin KSP that function via an allosteric mechanism” (Nat Chem Biol, 2007)
